Consider eleven compounds from patent US8575158B2, “1-phenyl-substituted heterocyclyl derivatives and their use as prostaglandin D2 receptor modulators” (Actelion Pharmaceuticals Ltd., priority 2010, dated 2013).

This experiment has as its target T1, hCRTH2 receptor (Homo sapiens, UniProt Q9Y5Y4).
T1 construct: expressed in transfected cells; host or cells: HEK293
T1 sequence (Q9Y5Y4 1-395): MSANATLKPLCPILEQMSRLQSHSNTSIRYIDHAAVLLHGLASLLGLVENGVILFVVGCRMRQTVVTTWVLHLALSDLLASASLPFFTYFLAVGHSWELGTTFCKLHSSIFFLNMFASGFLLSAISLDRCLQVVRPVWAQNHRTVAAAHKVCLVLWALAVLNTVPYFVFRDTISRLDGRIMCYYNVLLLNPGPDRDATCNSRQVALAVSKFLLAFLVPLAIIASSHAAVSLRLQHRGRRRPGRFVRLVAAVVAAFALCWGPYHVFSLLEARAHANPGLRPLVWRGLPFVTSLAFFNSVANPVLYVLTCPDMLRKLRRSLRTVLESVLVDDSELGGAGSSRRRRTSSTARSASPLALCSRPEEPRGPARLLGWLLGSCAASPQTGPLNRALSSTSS
Briefly: Radioligand displacement assay (3H-PGD2) on hCRTH2 receptor membranes. The experiment is classed as binding. The following applies: radioligand displacement (3H-PGD2), hCRTH2 receptor membranes; antagonistic activity. Background: Loss of bound radioactivity is the signal in a displacement assay; it reports binding, not function.
The term IC50 denotes the concentration that gives 50% inhibition. In the case of `Cc1ccccc1[C@H]1C[C@@H]1C(=O)N1CCc2ccccc2[C@H]1c1cc(Cl)ccc1OCC(=O)O` [Example 561, {4-Chloro-2-[(S)-2-((1S,2S)-2-o-tolyl-cyclopropanecarbonyl)-1,2,3,4-tetrahydro-isoquinolin-1-yl]-phenoxy}-acetic acid], the IC50 was found to be 274 nM. Under `O=C(O)COc1ccc(Cl)cc1[C@@H]1c2ccccc2CCN1C(=O)[C@@H]1C[C@H]1c1ccccc1C(F)(F)F` [Example 562, (4-Chloro-2-{(S)-2-[(1R,2R)-2-(2-trifluoromethyl-phenyl)-cyclopropanecarbonyl]-1,2,3,4-tetrahydro-isoquinolin-1-yl}-phenoxy)-acetic acid] stands 3.75 nM. In the case of `O=C(O)COc1ccc(Cl)cc1[C@@H]1c2ccccc2CCN1C(=O)[C@H]1C[C@@H]1c1ccccc1C(F)(F)F` [Example 563, (4-Chloro-2-{(S)-2-[(1S,2S)-2-(2-trifluoromethyl-phenyl)-cyclopropanecarbonyl]-1,2,3,4-tetrahydro-isoquinolin-1-yl}-phenoxy)-acetic acid] it was 264 nM. Under `O=C(O)COc1ccc(Cl)cc1[C@@H]1c2ccccc2CCN1C(=O)[C@@H]1C[C@H]1c1cccc(Cl)c1` [Example 564, (4-Chloro-2-{(S)-2-[(1R,2R)-2-(3-chloro-phenyl)-cyclopropanecarbonyl]-1,2,3,4-tetrahydro-isoquinolin-1-yl}-phenoxy)-acetic acid] stands 4.29 nM; under `O=C(O)COc1ccc(Cl)cc1[C@@H]1c2ccccc2CCN1C(=O)[C@@H]1C[C@H]1c1cccc(F)c1` [Example 565, (4-Chloro-2-{(S)-2-[(1R,2R)-2-(3-fluoro-phenyl)-cyclopropanecarbonyl]-1,2,3,4-tetrahydro-isoquinolin-1-yl}-phenoxy)-acetic acid], 2.64 nM. `O=C(O)COc1ccc(Cl)cc1[C@@H]1c2ccccc2CCN1C(=O)[C@@H]1C[C@H]1c1ccc(F)cc1` [Example 566, (4-Chloro-2-{(S)-2-[(1R,2R)-2-(4-fluoro-phenyl)-cyclopropanecarbonyl]-1,2,3,4-tetrahydro-isoquinolin-1-yl}-phenoxy)-acetic acid]: the IC50 is 2.17 nM. Under `N#CNC(=O)COc1ccc(Cl)cc1[C@@H]1c2ccccc2CCN1C(=O)OCc1ccccc1` [Example 567, (S)-benzyl 1-(5-chloro-2-(2-cyanamido-2-oxoethoxy)phenyl)-3,4-dihydroisoquinoline-2(1H)-carboxylate] stands 370 nM. `O=C(COc1ccc(Cl)cc1[C@@H]1c2ccccc2CCN1C(=O)OCc1ccccc1)NS(=O)(=O)C(F)(F)F` [Example 568, (S)-1-[5-Chloro-2-(2-oxo-2-trifluoromethanesulfonylamino-ethoxy)-phenyl]-3,4-dihydro-1H-isoquinoline-2-carboxylic acid benzyl ester] showed an IC50 of 9.18 nM.

In turn, `O=C(COc1ccc(Cl)cc1[C@@H]1c2ccccc2CCN1C(=O)OCc1ccccc1)NO` [Example 569, (S)-1-(5-Chloro-2-hydroxycarbamoylmethoxy-phenyl)-3,4-dihydro-1H-isoquinoline-2-carboxylic acid benzyl ester] yielded an IC50 of 120 nM.

For the compound `O=C(OCc1ccccc1)N1CCc2ccccc2C1c1cc(Cl)ccc1OCc1nnn[nH]1` (centres unmarked) [Example 570, (γ)-1-[5-Chloro-2-(1H-tetrazol-5-ylmethoxy)-phenyl]-3,4-dihydro-1H-isoquinoline-2-carboxylic acid benzyl ester], the half-maximal inhibitory concentration (IC50) worked out at 355 nM. In the case of `O=C(OCc1ccccc1)N1CCc2ccccc2[C@H]1c1cc(Cl)ccc1OCc1n[nH]c(=O)o1` [Example 571, (S)-1-[5-Chloro-2-(5-oxo-4,5-dihydro-[1,3,4]oxadiazol-2-ylmethoxy)-phenyl]-3,4-dihydro-1H-isoquinoline-2-carboxylic acid benzyl ester] it was 55 nM.
